# Measurements published in publication doi:10.1101/423061v1, “Comparative analysis of PknB inhibitors for reactivity and toxicity” (biorxiv, 2018).
# Target: PknB (Mycobacterium tuberculosis, UniProt P9WI81)
# Test: ATP Glo kinase assay, GarA as protein substrate
# Format: biochemical
# Sequence of PknB (P9WI81 1-331 limits assumed): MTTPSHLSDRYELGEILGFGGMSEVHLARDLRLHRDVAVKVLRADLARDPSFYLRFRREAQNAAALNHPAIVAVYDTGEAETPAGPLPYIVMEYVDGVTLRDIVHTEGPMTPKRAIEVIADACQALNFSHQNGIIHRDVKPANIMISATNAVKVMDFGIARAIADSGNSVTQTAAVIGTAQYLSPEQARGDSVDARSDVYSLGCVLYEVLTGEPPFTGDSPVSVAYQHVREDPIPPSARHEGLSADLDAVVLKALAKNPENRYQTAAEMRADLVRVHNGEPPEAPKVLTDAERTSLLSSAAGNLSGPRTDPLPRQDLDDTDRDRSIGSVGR
structure (smiles),measurement,value
"COC(=O)/C=C/C(=O)c1ccc(OC)cc1 [YH-8, trans-Methyl-4-(4-methoxyphneyl)-4-oxobut-2-enoate]",IC50,6.6 µM
